In ChEMBL document CHEMBL5634125, “Investigation of novel 5'-amino adenosine derivatives with potential anti-Zika virus activity” (Eur J Med Chem, 2023):
pIC50: −log10 of the molar value. Activity calls are given as the source filed them. The calls are words filed in the database; no cut-off is given here.

Columns and labels:
Zika virus [1] = assay: Antiviral activity against Zika virus infected in golden hamster BHK cells assessed as inhibition of virus induced cytopathic effect incubated for 6 to 8 days by CellTiter-Glo luminescent cell viability assay; format: functional, organism-based
Zika virus [2] = assay: Inhibition of Zika virus NS5 MTase activity at 50 uM by chemiluminescence-based enzymatic assay system relative to control
[3] = Acute toxicity in A129 mouse assessed as animal death at 50 mg/kg, po measured after 2 weeks; format: organism-based; details: in vivo, 336 h
[4] = AUC (0 to t) in ICR mouse at 25 mg/kg, po administered as single dose and measured upto 24 hrs by LC-MS/MS analysis; format: ADME, organism-based; details: in vivo
[5] = MRT in ICR mouse at 25 mg/kg, po administered as single dose and measured upto 24 hrs by LC-MS/MS analysis; format: ADME, organism-based; details: in vivo
[6] = Cmax in ICR mouse at 25 mg/kg, po administered as single dose and measured upto 24 hrs by LC-MS/MS analysis; format: ADME, organism-based; details: in vivo
[7] = Acute toxicity in A129 mouse assessed as animal death at 100 mg/kg, po measured after 2 weeks; format: organism-based; details: in vivo, 336 h
[8] = Half-life in ICR mouse at 25 mg/kg, po administered as single dose and measured upto 24 hrs by LC-MS/MS analysis; format: ADME, organism-based; details: in vivo
[9] = Acute toxicity in po dosed ICR mouse assessed as lethal dose measured after 2 weeks; format: organism-based; details: in vivo
[10] = Tmax in ICR mouse at 25 mg/kg, po administered as single dose and measured upto 24 hrs by LC-MS/MS analysis; format: ADME, organism-based; details: in vivo
Zika virus [11] = assay: Antiviral activity against Zika virus infected in golden hamster BHK-21 cells assessed as inhibition of viral replication incubated for 72 hrs by Dual-luciferase reporter assay system; format: functional, organism-based; details: BHK-21, 72 h
Zika virus [12] = assay: Antiviral activity against Zika virus infected in golden hamster BHK cells assessed as inhibition of viral RNA production at stage IV pre-infected with virus for 2 hrs followed by compound addition and measured 24 hrs post infection by qRT-PCR analysis; format: functional, organism-based; details: time 22.0 hrs
Zika virus [13] = assay: Antiviral activity against Zika virus infected in infected in golden hamster BHK cells assessed as inhibition of viral RNA production at stage III incubated for 24 hrs by qRT-PCR analysis; format: functional, organism-based

SMILES | pIC50 (Zika virus [1]) | other results
CC(C)NC[C@H]1O[C@@H](n2cnc3c(NCc4cccc(Cl)c4)ncnc32)[C@H](O)[C@@H]1O | 5.20 | 
O[C@@H]1[C@H](O)[C@@H](CNC2CCCCC2)O[C@H]1n1cnc2c(NCc3cccc(Cl)c3)ncnc21 | 5.28 | 
O[C@@H]1[C@H](O)[C@@H](CN2CCCCC2)O[C@H]1n1cnc2c(NCc3cccc(Cl)c3)ncnc21 | < 4.30 | 
O[C@@H]1[C@H](O)[C@@H](CNCc2ccc(F)cc2)O[C@H]1n1cnc2c(NCc3cccc(Cl)c3)ncnc21 | 5.47 | 
O[C@@H]1[C@H](O)[C@@H](CNC2CCC2)O[C@H]1n1cnc2c(NCc3cccc(Cl)c3)ncnc21 | 5.14 | 
Oc1ccc(CNC[C@H]2O[C@@H](n3cnc4c(NCc5cccc(Cl)c5)ncnc43)[C@H](O)[C@@H]2O)cc1 | 4.59 | 
CC1CCN(C[C@H]2O[C@@H](n3cnc4c(NCc5cccc(Cl)c5)ncnc43)[C@H](O)[C@@H]2O)CC1 | 5.18 | 
CCNC[C@H]1O[C@@H](n2cnc3c(NCc4cccc(Cl)c4)ncnc32)[C@H](O)[C@@H]1O | 4.83 | 
O[C@@H]1[C@H](O)[C@@H](CNCc2ccccc2)O[C@H]1n1cnc2c(NCc3cccc(Cl)c3)ncnc21 | 5.34 | 
O[C@@H]1[C@H](O)[C@@H](CNCc2ccc(C(F)(F)F)cc2)O[C@H]1n1cnc2c(NCC3CCC3)ncnc21 | < 4.30 | 
O[C@@H]1[C@H](O)[C@@H](CNC2CCCC2)O[C@H]1n1cnc2c(NCc3cccc(Cl)c3)ncnc21 | 5.07 | 
Nc1ncnc2c1ncn2[C@@H]1O[C@H](C[C@@H](N)CC[C@H](N)C(=O)O)[C@@H](O)[C@H]1O |  | inhibition (Zika virus [2]): 67.5%
O[C@@H]1[C@H](O)[C@@H](CNCc2ccc(C(F)(F)F)cc2)O[C@H]1n1cnc2c(NCc3ccccc3Cl)ncnc21 | < 4.30 | 
O[C@@H]1[C@H](O)[C@@H](CNCc2ccc(C(F)(F)F)cc2)O[C@H]1n1cnc2c(NCc3ccc(Cl)cc3)ncnc21 | < 4.30 | 
COc1ccc(CNC[C@H]2O[C@@H](n3cnc4c(NCc5cccc(Cl)c5)ncnc43)[C@H](O)[C@@H]2O)cc1 | 5.30 | 
O[C@@H]1[C@H](O)[C@@H](CNCc2ccc(C(F)(F)F)cc2)O[C@H]1n1cnc2c(NCc3cccs3)ncnc21 | < 4.30 | 
O[C@@H]1[C@H](O)[C@@H](CNCc2ccc(Br)cc2)O[C@H]1n1cnc2c(NCc3cccc(Cl)c3)ncnc21 | 5.66 | 
O=[N+]([O-])c1ccc(CNC[C@H]2O[C@@H](n3cnc4c(NCc5cccc(Cl)c5)ncnc43)[C@H](O)[C@@H]2O)cc1 | 5.12 | 
CCN(C)c1ncnc2c1ncn2[C@@H]1O[C@H](CNCc2ccc(C(F)(F)F)cc2)[C@@H](O)[C@H]1O | 4.60 | 
N#Cc1cccc(CNc2ncnc3c2ncn3[C@@H]2O[C@H](CNCc3ccc(C(F)(F)F)cc3)[C@@H](O)[C@H]2O)c1 | < 4.30 | 
CNc1ncnc2c1ncn2[C@@H]1O[C@H](CNCc2ccc(C(F)(F)F)cc2)[C@@H](O)[C@H]1O | < 4.30 | 
O[C@@H]1[C@H](O)[C@@H](CNCc2ccc(C(F)(F)F)cc2)O[C@H]1n1cnc2c(NCc3cccc(F)c3)ncnc21 | 5.38 | 
Cc1cccc(CNc2ncnc3c2ncn3[C@@H]2O[C@H](CNCc3ccc(C(F)(F)F)cc3)[C@@H](O)[C@H]2O)c1 | 5.26 | 
CC1CCCN(C[C@H]2O[C@@H](n3cnc4c(NCc5cccc(Cl)c5)ncnc43)[C@H](O)[C@@H]2O)C1 (some centres undefined) | 5.85 | Activity [3]: Non-Toxic; AUC(0-t) at 24 h [4]: 2910 ng·h/mL; MRT [5]: 3.95 h; Cmax [6]: 837 ng/mL; Activity [7]: Non-Toxic; half-life [8]: 3.56 h; LD50 at 336 h [9]: > 200 mg/kg; Tmax [10]: 0.5 h
CCOC(=O)C1CCN(C[C@H]2O[C@@H](n3cnc4c(NCc5cccc(Cl)c5)ncnc43)[C@H](O)[C@@H]2O)CC1 | 4.57 | 

SMILES | pIC50 (Zika virus [1]) | other results
O[C@@H]1[C@H](O)[C@@H](CN2CCCC2)O[C@H]1n1cnc2c(NCc3cccc(Cl)c3)ncnc21 | 4.76 | 
C[C@@]1(O)[C@H](O)[C@@H](CO)O[C@H]1n1cnc2c(N)ncnc21 |  | pIC50 (Zika virus [11]): 5.75
Nc1ncnc2c1ncn2[C@@H]1O[C@H](CNCc2ccc(C(F)(F)F)cc2)[C@@H](O)[C@H]1O | < 4.30 | 
O[C@@H]1[C@H](O)[C@@H](CN2CCC3(CCNCC3)CC2)O[C@H]1n1cnc2c(NCc3cccc(Cl)c3)ncnc21 | < 4.30 | 
CC(C)N1CCN(C[C@H]2O[C@@H](n3cnc4c(NCc5cccc(Cl)c5)ncnc43)[C@H](O)[C@@H]2O)CC1 | < 4.30 | 
O[C@@H]1[C@H](O)[C@@H](CNCc2ccc(C(F)(F)F)cc2)O[C@H]1n1cnc2c(NCc3ccco3)ncnc21 | 4.88 | 
CCN1CCN(C[C@H]2O[C@@H](n3cnc4c(NCc5cccc(Cl)c5)ncnc43)[C@H](O)[C@@H]2O)CC1 | < 4.30 | 
O[C@@H]1[C@H](O)[C@@H](CNCc2ccc(C(F)(F)F)cc2)O[C@H]1n1cnc2c(NCc3cccc(C(F)(F)F)c3)ncnc21 | < 4.30 | 
O[C@@H]1[C@H](O)[C@@H](CN2CCOCC2)O[C@H]1n1cnc2c(NCc3cccc(Cl)c3)ncnc21 | < 4.30 | 
O[C@@H]1[C@H](O)[C@@H](CNCc2cccs2)O[C@H]1n1cnc2c(NCc3cccc(Cl)c3)ncnc21 | 5.22 | 
OC1CCN(C[C@H]2O[C@@H](n3cnc4c(NCc5cccc(Cl)c5)ncnc43)[C@H](O)[C@@H]2O)CC1 | < 4.30 | 
O=C(NC[C@H]1O[C@@H](n2cnc3c(NCc4cccc(Cl)c4)ncnc32)[C@H](O)[C@@H]1O)c1ccc(F)cc1 | < 4.30 | 
O[C@@H]1[C@H](O)[C@@H](CNCc2ccc(Cl)cc2)O[C@H]1n1cnc2c(NCc3cccc(Cl)c3)ncnc21 | 5.57 | 
O[C@@H]1[C@H](O)[C@@H](CNCc2ccc3ccccc3c2)O[C@H]1n1cnc2c(NCc3cccc(Cl)c3)ncnc21 | 5.84 | 
C#C[C@@]1(O)[C@H](O)[C@@H](CO)O[C@H]1n1ccc2c(N)ncnc21 | 6.07 | Activity (Zika virus [12]): Active; Activity (Zika virus [13]): Active
COc1cccc(CNc2ncnc3c2ncn3[C@@H]2O[C@H](CNCc3ccc(C(F)(F)F)cc3)[C@@H](O)[C@H]2O)c1 | 5.12 | 
O[C@@H]1[C@H](O)[C@@H](CNCc2ccc(OC(F)(F)F)cc2)O[C@H]1n1cnc2c(NCc3cccc(Cl)c3)ncnc21 | 5.69 | 
O[C@@H]1[C@H](O)[C@@H](CNCc2cccc3ccccc23)O[C@H]1n1cnc2c(NCc3cccc(Cl)c3)ncnc21 | 5.45 | 
O[C@@H]1[C@H](O)[C@@H](CNCc2ccncc2)O[C@H]1n1cnc2c(NCc3cccc(Cl)c3)ncnc21 | < 4.30 | 
O[C@@H]1[C@H](O)[C@@H](CNCc2ccc(C(F)(F)F)cc2)O[C@H]1n1cnc2c(NCC3CCCCC3)ncnc21 | < 4.30 | 
CN(Cc1ccc(F)cc1)C[C@H]1O[C@@H](n2cnc3c(NCc4cccc(Cl)c4)ncnc32)[C@H](O)[C@@H]1O | 5.24 | 
CCN(CC)C[C@H]1O[C@@H](n2cnc3c(NCc4cccc(Cl)c4)ncnc32)[C@H](O)[C@@H]1O | 5.07 | 
CC1CCCCN1C[C@H]1O[C@@H](n2cnc3c(NCc4cccc(Cl)c4)ncnc32)[C@H](O)[C@@H]1O (some centres undefined) | 5.25 | 
O[C@@H]1[C@H](O)[C@@H](CNCc2cccc(F)c2)O[C@H]1n1cnc2c(NCc3cccc(Cl)c3)ncnc21 | 5.24 | 
